Among the data in BindingDB's records for doi:10.1021/jm00099a007 (Merck Research Laboratories, 1992) are IC50 values, retold here.

Where only a bound is given, the exact number is not on record here.

This assay deals with T1, Gag-Pol polyprotein [588-1027]/[588-1147] (Human immunodeficiency virus 1, UniProt P04585).
T1 construct: 588-1027; 588-1147
Kind of assay: HIV-1 RT Assay.

On to `O=c1[nH]c2ccccc2cc1NCc1ccc2ccccc2c1` [3-[(naphthalen-2-ylmethyl)amino]-1,2-dihydroquinolin-2-one], for which the IC50 was more than 300 µM.

As a reminder, the IC50 is the concentration at which inhibition is half-maximal. A high value points to weaker potency in that assay.
